From patent US12649733B2, “3,6-diamino-pyridazin-3-yl derivatives, pharmaceutical compositions containing them and their uses as pro-apoptotic agents” (LES LABORATOIRES SERVIER, priority 2019, dated 2026)

Assays:
H146 cells = experiment: H146 cell viability, MTT assay; type: cell-based; conditions: Homo sapiens, NCI-H146, 48 h, 48 h exposure
Description: (§1) MTT colorimetric assay is based on the mitochondrial reduction of tetrazolium salt by living cells. The viable cell number is proportional to the production of formazan salts, which can be read spectrophotometrically at 540 nm.
(§2) MOLT-4 and H146 cells were purchased from ATCC and cultivated in RPMI 1640 supplemented with 10% heat inactivated fetal bovine serum, penicillin (100 IU/ml), streptomycin (100 μg/ml) and L-glutamine (2 mM). Cells were cultured at 37° C. in a humidified atmosphere containing 5% CO2. Cells were seeded in 96 microwell plates (150 μL per well) and exposed to the compounds for 48 h (3.16 fold serially diluted; 9 concentrations each, triplicates). At the end of incubation time, 15 μL of MTT solution (5 mg/ml) were added per well and the cells were incubated for another 4 h. Then, 100 μL of 10% Sodium Dodecyl Sulfate (SDS)/HCl 10 mM were added per well and the plate was incubated overnight, before measurement of optical density at 540 nm. IC50s were calculated using standard four-parametric curve fitting.

BCLXL = BCLXL (Homo sapiens, UniProt Q07817, V10N/V9A); experiment: Fluorescence polarisation assay (PUMA-based probe displacement); type: binding; also: 20 nM protein, 10 nM fluorescent probe
Sequence of BCLXL (Q07817 with tags, fused parts or gaps V9A/V10N): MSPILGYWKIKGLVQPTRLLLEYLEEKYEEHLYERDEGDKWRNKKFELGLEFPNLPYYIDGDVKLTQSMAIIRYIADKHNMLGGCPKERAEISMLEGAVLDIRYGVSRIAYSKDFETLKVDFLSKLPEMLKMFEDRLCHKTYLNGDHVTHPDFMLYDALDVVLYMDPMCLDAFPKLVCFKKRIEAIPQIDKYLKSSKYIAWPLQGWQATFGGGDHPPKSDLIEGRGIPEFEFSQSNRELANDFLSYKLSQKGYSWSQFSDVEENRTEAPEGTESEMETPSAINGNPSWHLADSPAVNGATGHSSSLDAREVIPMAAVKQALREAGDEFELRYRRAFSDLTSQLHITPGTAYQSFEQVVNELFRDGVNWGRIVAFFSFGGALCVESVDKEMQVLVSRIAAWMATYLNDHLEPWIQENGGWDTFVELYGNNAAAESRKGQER
Description: Fluorescence polarization measures the rotation of a fluorescing species in solution, the larger the molecule the more polarized the fluorescence emission.
[[…]] (GST UniProtKB® primary accession number P08515 and BCLXL UniProtKB® primary accession number Q07817-1),
resulting in an increase in anisotropy. If a compound is added which competitively binds to the same site as the probe, thereby releasing it, anisotropy decreases due to the increased amount of free probe.
An 11-point serial dilution of each compound was prepared in DMSO, the final buffer conditions were 10 mM 4-(2-hydroxyethyl)-1-piperazineethanesulfonic acid [HEPES], 150 mM NaCl, 0.05% Tween 20, pH 7.4 and 5% DMSO. The final protein concentration in the assay was 20 nM with the fluorescent probe present at 10 nM. The experiments were incubated for 2 hours at 23° C. before fluorescence polarization was measured on a Biotek SynergyNeo plate reader (Excitation 485 nm, emission 525 nm, parallel and perpendicular reads). […] The KI values were determined from the IC50 values according to Cer et al, Nucleic Acids Res, 2009, Jul. 1: 37(WebServer issue): W441-W445.

MOLT-4 cells = experiment: MOLT-4 cell viability, MTT assay; type: cell-based; conditions: Homo sapiens, MOLT-4, 48 h, 48 h exposure
Description: as §1, §2

| Compound | IC50 (H146 cells) [nM] | Ki (BCLXL) [nM] | IC50 (MOLT-4 cells) [nM] |
| --- | --- | --- | --- |
| Cc1c(Nc2cccc(C(=O)O)n2)nnc(Nc2nc3ccccc3s2)c1C [Example 2, 6-({6-[(1,3-Benzothiazol-2-yl)amino]-4,5-dimethylpyridazin-3-yl}amino)pyridine-2-carboxylic acid] | 12500 | 330 | – |
| CC(C)c1cc(Nc2nc(C(=O)O)cs2)nnc1Nc1nc2ccccc2s1 [Example 5, 2-({6-[(1,3-Benzothiazol-2-yl)amino]-5-(propan-2-yl)pyridazin-3-yl}amino)-1,3-thiazole-4-carboxylic acid] | 8210 | 180 | – |
| CC(C)c1cc(Nc2nc3ccccc3s2)nnc1Nc1nc(C(=O)O)cs1 [Example 6, 2-({6-[(1,3-Benzothiazol-2-yl)amino]-4-(propan-2-yl)pyridazin-3-yl}amino)-1,3-thiazole-4-carboxylic acid] | > 44900 | 490 | – |
| Cc1c(Nc2nc3ccccc3s2)nnc(Nc2nc(C(=O)O)cs2)c1C(C)C [Example 8, 2-({6-[(1,3-Benzothiazol-2-yl)amino]-5-methyl-4-(propan-2-yl)pyridazin-3-yl}amino)-1,3-thiazole-4-carboxylic acid] | 10500 | 87 | – |
| Cc1c(Nc2nc(C(=O)O)c(CCCOc3ccccc3)s2)nnc(Nc2nc3ccccc3s2)c1C [Example 9, 2-({6-[(1,3-Benzothiazol-2-yl)amino]-4,5-dimethylpyridazin-3-yl}amino)-5-(3-phenoxypropyl)-1,3-thiazole-4-carboxylic acid] | 207 | 4 | 2320 |
| Cc1c(Nc2nc(C(=O)O)cs2)nnc(Nc2nc3ccccc3s2)c1C(C)C [Example 10, 2-({6-[(1,3-Benzothiazol-2-yl)amino]-4-methyl-5-(propan-2-yl)pyridazin-3-yl}amino)-1,3-thiazole-4-carboxylic add] | 8310 | 410 | – |
| COCCCc1sc(Nc2nnc(Nc3nc4ccccc4s3)c(C)c2C)nc1C(=O)O [Example 12] | 913 | 27 | 1620 |
| Cc1c(Nc2nc(C(=O)O)c(CCCOc3ccccc3F)s2)nnc(Nc2nc3ccccc3s2)c1C [Example 13, 2-({6-[(1,3-Benzothiazol-2-yl)amino]-4,5-dimethylpyridazin-3-yl}amino)-5-[3-(2-fluorophenoxy)propyl]-1,3-thiazole-4-carboxylic acid] | 292 | 3.8 | 2230 |
| Cc1c(Nc2nc(C(=O)O)c(CCCOc3ccc(C(=O)N(C)C)cc3F)s2)nnc(Nc2nc3ccccc3s2)c1C [Example 14, 2-({6-[(1,3-Benzothiazol-2-yl)amino]-4,5-dimethylpyridazin-3-yl}amino)-5-{3-[4-(dimethylcarbamoyl)-2-fluorophenoxy]propyl}-1,3-thiazole-4-carboxylic acid] | 2110 | 3.2 | – |
| CCc1c(Nc2nc(C(=O)O)cs2)nnc(Nc2nc3ccccc3s2)c1C [Example 15, 2-({6-[(1,3-Benzothiazol-2-yl)amino]-4-ethyl-5-methylpyridazin-3-yl}amino)-1,3-thiazole-4-carboxylic acid] | > 15000 | 37 | – |
| CCc1c(Nc2nc3ccccc3s2)nnc(Nc2nc(C(=O)O)cs2)c1C [Example 16, 2-({6-[(1,3-Benzothiazol-2-yl)amino]-5-ethyl-4-methylpyridazin-3-yl}amino)-1,3-thiazole-4-carboxylic acid] | 8040 | 52 | – |
| Cc1c(Nc2nc3ccccc3s2)nnc(Nc2nc(C(=O)O)cs2)c1CO [Example 18, 2-({6-[(1,3-Benzothiazol-2-yl)amino]-4-(hydroxymethyl)-5-methylpyridazin-3-yl}amino)-1,3-thiazole-4-carboxylic acid] | > 15000 | 78 | – |
| Cc1c(Nc2nc3ccccc3s2)nnc(Nc2nc(C(=O)O)cs2)c1C1CC1 [Example 19, 2-({6-[(1,3-Benzothiazol-2-yl)amino]-4-cyclopropyl-5-methylpyridazin-3-yl}amino)-1,3-thiazole-4-carboxylic acid] | ≥ 12800 | 30 | – |
| Cc1c(Nc2nc(C(=O)O)c(CCCOc3ccc(CCCN(C)C)cc3F)s2)nnc(Nc2nc3ccccc3s2)c1C [Example 22, 2-({6-[(1,3-Benzothiazol-2-yl)amino]-4,5-dimethylpyridazin-3-yl}amino)-5-(3-{4-[3-(dimethylamino)propyl]-2-fluorophenoxy}propyl)-1,3-thiazole-4-carboxylic acid] | 2130 | 2.9 | – |
| O=C(O)c1csc(Nc2nnc(Nc3nc4ccccc4s3)c3c2CCC3)n1 [Example 23, 2-[[1-(1,3-Benzothiazol-2-ylamino)-6,7-dihydro-5H-cyclopenta[d]pyridazin-4-yl]amino]thiazole-4-carboxylic acid] | ≥ 12700 | 40 | 13000 |
| O=C(O)c1cccc(Nc2nnc(Nc3nc4ccccc4s3)c3c2CCCC3)n1 [Example 24, 6-[[4-(1,3-Benzothiazol-2-ylamino)-5,6,7,8-tetrahydrophthalazin-1-yl]amino]pyridine-2-carboxylic acid] | 6930 | 140 | 3310 |
| O=C(O)c1cccc(Nc2nnc(Nc3nc4ccccc4s3)c3c2CCC3)n1 [Example 25, 6-[[4-(1,3-benzothiazol-2-ylamino)-6,7-dihydro-5H-cyclopenta[d]pyridazin-1-yl]amino]pyridine-2-carboxylic acid] | 3180 | 990 | 7130 |
| Cc1c(Nc2nc(C(=O)O)cs2)nnc(Nc2nc3ccccc3s2)c1CO [Example 27, 2-({6-[(1,3-Benzothiazol-2-yl)amino]-5-(hydroxymethyl)-4-methylpyridazin-3-yl}amino)-1,3-thiazole-4-carboxylic acid] | > 15000 | 310 | > 13000 |
| COCc1c(Nc2nc3ccccc3s2)nnc(Nc2nc(C(=O)O)cs2)c1C [Example 28, 2-({6-[(1,3-Benzothiazol-2-yl)amino]-5-(methoxymethyl)-4-methylpyridazin-3-yl}amino)-1,3-thiazole-4-carboxylic acid] | > 15000 | 130 | > 15000 |
| CCOCc1c(Nc2nc(C(=O)O)cs2)nnc(Nc2nc3ccccc3s2)c1C [Example 30, 2-({6-[(1,3-Benzothiazol-2-yl)amino]-4-(ethoxymethyl)-5-methylpyridazin-3-yl}amino)-1,3-thiazole-4-carboxylic acid] | > 15000 | 81 | 8670 |
| CN(c1cc(C2CC2)c(Nc2nc3ccccc3s2)nn1)c1nc(C(=O)O)cs1 [Example 31, 2-({6-[(1,3-Benzothiazol-2-yl)amino]-5-cyclopropylpyridazin-3-yl}(methyl)amino)-1,3-thiazole-4-carboxylic acid] | 4190 | 2.6 | 2340 |
| Cc1cc(N(C)c2nc(C(=O)O)c(C3CN(CC(C)C)C3)s2)nnc1Nc1nc2ccccc2s1 [Example 156, 2-({6-[(1,3-Benzothiazol-2-yl)amino]-5-methylpyridazin-3-yl}(methyl)amino)-5-[1-(2-methylpropyl)azetidin-3-yl]-1,3-thiazole-4-carboxylic acid] | – | 890 | – |
| Cc1cc(N(C)c2nc(C(=O)O)c(C3CN(C)C3)s2)nnc1Nc1nc2ccccc2s1 [Example 157, 2-({6-[(1,3-Benzothiazol-2-yl)amino]-5-methylpyridazin-3-yl}(methyl)amino)-5-(1-methylazetidin-3-yl)-1,3-thiazole-4-carboxylic acid] | – | 1200 | – |
| Cc1cc(N(CCCC(=O)O)c2nc(C(=O)O)cs2)nnc1Nc1nc2ccccc2s1 [Example 158, 2-({6-[(1,3-Benzothiazol-2-yl)amino]-5-methylpyridazin-3-yl}(3-carboxypropyl)amino)-1,3-thiazole-4-carboxylic acid] | – | 43 | – |
| Cc1cc(N(C)c2nc(C(=O)O)c(C3CN(C(=O)NCc4ccccc4)C3)s2)nnc1Nc1nc2ccccc2s1 [Example 159, 2-({6-[(1,3-Benzothiazol-2-yl)amino]-5-methylpyridazin-3-yl}(methyl)amino)-5-[1-(benzylcarbamoyl)azetidin-3-yl]-1,3-thiazole-4-carboxylic acid] | – | 180 | – |
| CCNC(=O)N1CC(c2sc(N(C)c3cc(C)c(Nc4nc5ccccc5s4)nn3)nc2C(=O)O)C1 [Example 160, 2-({6-[(1,3-Benzothiazol-2-yl)amino]-5-methylpyridazin-3-yl}(methyl)amino)-5-[1-(ethylcarbamoyl)azetidin-3-yl]-1,3-thiazole-4-carboxylic acid] | – | 220 | – |
